The values below come from patent publication US5091367A, “Analogs of gonadoliberin with improved solubility, methods for their preparation, agents containing them and their use” (Hoechst Aktiengesellschaft, priority 1986, dated 1992).

For the experiment, the system named is Serum testosterone. As to the kind of experiment: serum testosterone after Gn-RH antagonist (Table 2). The format is in vivo. The note with it: untreated control 3.63 ± 0.59. The source says: The Gn-RH antagonists according to the invention have an inhibitory effect on the formation of lutropin and follitropin and, as a result, also on the synthesis of testosterone and estrogen (see Table 2). They can be employed as high-dose Gn-RH […] in gonadotropin- and steroid-dependent diseases.

As for “Ac-D-Nal-p-Cl-D-Phe-D-Trp-Ser-Tyr-D-Ser(α-L-Rha)-Leu-Arg-Pro-Azagly-N H2”, the Serum testosterone came to 2.30 ± 0.47 ng/mL.
